# Measurements as given in patent US9278922B2 (ABBVIE INC., priority 2009, dated 2016).
# System: HCV 1b-Con-1 replicon
# Assay: HCV 1b-Con-1 replicon assay (luciferase reporter gene, HuH-7 cells)
# Format: cell-based, Hepatitis C virus (HCV) genotype 1b-Con1
# Settings: Hepatitis C virus, Huh-7, luciferase reporter gene activity in the replicon, in the presence of 5% FBS
row,Compound,EC50 [nM]
1,"COC(=O)N[C@@H](CO)C(=O)N1CCC[C@H]1C(=O)Nc1ccc(CN(Cc2ccc(NC(=O)[C@@H]3CCCN3C(=O)[C@H](CO)NC(=O)OC)cc2)c2ccccc2)cc1 [Example 26, dimethyl[(phenylimino)bis{methanediylbenzene-4,1-diylcarbamoyl(2S)pyrrolidine-2,1-diyl[(2S)-3-hydroxy-1-oxopropane-1,2-diyl]}]biscarbamate]",10 to 100
2,"CC[C@H](NC(=O)OC)C(=O)N1CCC[C@H]1C(=O)Nc1ccc(CN(Cc2ccc(NC(=O)[C@@H]3CCCN3C(=O)[C@@H](NC(=O)OC)C(C)(C)C)cc2)c2ccccc2)cc1 [Example 62, N-(methoxycarbonyl)-3-methyl-L-valyl-N-(4-{[{4-[(1-{(2S)-2-[(methoxycarbonyl)amino]butanoyl}-L-prolyl)amino]benzyl}(phenyl)amino]methyl}phenyl)-L-prolinamide]",1 to 10
3,"CN(C)C(=O)N[C@H](C(=O)N1CCC[C@H]1C(=O)Nc1ccc(CN(Cc2ccc(NC(=O)[C@@H]3CCCN3C(=O)[C@@H](NC(=O)N(C)C)C(C)(C)C)cc2)c2ccccc2)cc1)C(C)(C)C [Example 80, (2S,2′S)-N,N′-[(phenylimino)bis(methanediylbenzene-4,1-diyl)]bis(1-{(2S)-2-[(dimethylcarbamoyl)amino]-3,3-dimethylbutanoyl}pyrrolidine-2-carboxamide)]",10 to 100
4,"O=C(Nc1ccc(CN(Cc2ccc(NC(=O)[C@@H]3CCCN3C(=O)C(c3ccccc3)C3CCCC3)cc2)c2ccc(F)cc2)cc1)[C@@H]1CCCN1C(=O)C(c1ccccc1)C1CCCC1 (stereo partly drawn) [Example 107, (2S,2′S)-N,N′-{[(4-fluorophenyl)imino]bis(methanediylbenzene-4,1-diyl)}bis{1-[cyclopentyl(phenyl)acetyl]pyrrolidine-2-carboxamide}]",10 to 100
5,"CC[C@H](NC(=O)OC)C(=O)N1CCC[C@H]1C(=O)Nc1ccc(CN(Cc2ccc(NC(=O)[C@@H]3CCCN3C(=O)[C@H](CC)NC(=O)OC)cc2)c2ccc(F)cc2)cc1 [Example 112, dimethyl ([(4-fluorophenyl)imino]bis{methanediylbenzene-4,1-diylcarbamoyl(25)pyrrolidine-2,1-diyl[(2S)-1-oxobutane-1,2-diyl]})biscarbamate]",1 to 10
6,"COC(=O)N[C@H](C(=O)N1CCC[C@H]1c1nc2cc(CN(Cc3ccc4[nH]c([C@@H]5CCCN5C(=O)[C@@H](NC(=O)OC)[C@H]5CCOC5)nc4c3)c3ccccc3)ccc2[nH]1)[C@H]1CCOC1 [Example 78, dimethyl {(phenylimino)bis[methanediyl-1H-benzimidazole-5,2-diyl(2S)pyrrolidine-2,1-diyl{(1S)-2-oxo-1-[(3R)-tetrahydrofuran-3-yl]ethane-2,1-diyl}]}biscarbamate]",< 1
7,"O=C(Nc1ccc(CN(Cc2ccc(NC(=O)[C@@H]3CCCN3C(=O)[C@@H](c3ccccc3)N3CCCC3)cc2)c2ccc(F)cc2)cc1)[C@@H]1CCCN1C(=O)[C@@H](c1ccccc1)N1CCCC1 [Example 85, (2S,2′S)-N,N′-{[(4-fluorophenyl)imino]bis(methanediylbenzene-4,1-diyl)}bis{1-[(2R)-2-phenyl-2-pyrrolidin-1-ylacetyl]pyrrolidine-2-carboxamide}]",< 1
8,"COC(=O)N[C@@H](C)C(=O)N1CCC[C@H]1C(=O)Nc1ccc(CN(Cc2ccc(NC(=O)[C@@H]3CCCN3C(=O)[C@H](C)NC(=O)OC)cc2)c2ccccc2)cc1 [Example 8, Dimethyl (2S,2′S)-1,1′-((2S,2′S)-2,2′-(4,4′-(phenylazanediyl)bis(methylene)bis(4,1-phenylene)bis(azanediyl))bis(oxomethylene)bis(pyrrolidine-2,1-diyl))bis(1-oxopropane-2,1-diyl)dicarbamate]",1 to 10
9,"O=C(Nc1ccc(CN(Cc2ccc(NC(=O)[C@@H]3C[C@H](O)CN3C(=O)[C@@H](c3ccccc3)N3CCCCC3)cc2)c2ccc(F)cc2)cc1)[C@@H]1C[C@H](O)CN1C(=O)[C@@H](c1ccccc1)N1CCCCC1 [Example 127, (2S,4S,2′S,4′S)-N,N′-{[(4-fluorophenyl)imino]bis(methanediylbenzene-4,1-diyl)}bis{4-hydroxy-1-[(2R)-2-phenyl-2-piperidin-1-ylacetyl]pyrrolidine-2-carboxamide}]",< 1
10,COC(=O)N[C@@H](C)C(=O)N1CCC[C@H]1C(=O)Nc1ccc(CN(Cc2ccc(NC(=O)[C@@H]3CCCN3C(=O)[C@H](C)NC(=O)OC)cc2)c2ccc(F)cc2)cc1 [Example 15],1 to 10
11,"CC(C)C(C(=O)N1CCC[C@H]1C(=O)Nc1ccc(CN(Cc2ccc(NC(=O)[C@@H]3CCCN3C(=O)C(c3ccccc3)C(C)C)cc2)c2ccc(F)cc2)cc1)c1ccccc1 (stereo partly drawn) [Example 108, (2S,2′S)-N,N′-{[(4-fluorophenyl)imino]bis(methanediylbenzene-4,1-diyl)}bis[1-(3-methyl-2-phenylbutanoyl)pyrrolidine-2-carboxamide]]",1 to 10
12,COC(=O)N[C@H](C(=O)N1C[C@@H](F)C[C@H]1C(=O)Nc1ccc(CN(Cc2ccc(NC(=O)[C@@H]3C[C@H](F)CN3C(=O)[C@@H](NC(=O)OC)C(C)(C)C)cc2)c2ccccc2)cc1)C(C)(C)C [Example 94],1 to 10
13,CC[C@H](C)[C@H](NC(=O)OC)C(=O)N1CCC[C@H]1C(=O)Nc1ccc(CN(Cc2ccc(NC(=O)[C@@H]3CCCN3C(=O)[C@@H](NC(=O)OC)[C@@H](C)CC)cc2)c2ccccc2)cc1 [Example 9],< 1
14,"O=C(Nc1ccc(CN(Cc2ccc(NC(=O)[C@@H]3CCCN3C(=O)[C@@H](c3ccccc3)N3CCOCC3)cc2)c2ccccc2)cc1)[C@@H]1CCCN1C(=O)[C@@H](c1ccccc1)N1CCOCC1 [Example 57, (2S,2′S)-N,N′-[(phenylimino)bis(methanediylbenzene-4,1-diyl)]bis{1-[(2R)-2-morpholin-4-yl-2-phenylacetyl]pyrrolidine-2-carboxamide}]",< 1
15,"O=C(Nc1ccc(CN(Cc2ccc(NC(=O)[C@@H]3CCCN3C(=O)C(c3ccccc3)N3CC[C@@H](F)C3)cc2)c2ccc(F)cc2)cc1)[C@@H]1CCCN1C(=O)C(c1ccccc1)N1CC[C@@H](F)C1 (single isomer, unassigned) [Example 118]",1 to 10
16,COC(=O)N[C@H](C(=O)N1CC(F)(F)C[C@H]1C(=O)Nc1ccc(CN(Cc2ccc(NC(=O)[C@@H]3CC(F)(F)CN3C(=O)[C@@H](NC(=O)OC)C(C)(C)C)cc2)c2ccccc2)cc1)C(C)(C)C [Example 73],< 1
17,"COC(=O)N[C@H](C(=O)N1CCC[C@H]1C(=O)Nc1ccc(CN(Cc2ccc(NC(=O)[C@@H]3CCCN3C(=O)[C@@H](c3ccccc3)N3CCCC3)cc2)c2ccccc2)cc1)C(C)(C)C [Example 56, N-(methoxycarbonyl)-3-methyl-L-valyl-N-[4-({phenyl[4-({1-[(2R)-2-phenyl-2-pyrrolidin-1-ylacetyl]-L-prolyl}amino)benzyl]amino}methyl)phenyl]-L-prolinamide]",< 1
18,COC(=O)N[C@H](C(=O)N1C[C@H](O)C[C@H]1C(=O)Nc1ccc(CN(Cc2ccc(NC(=O)[C@@H]3C[C@@H](O)CN3C(=O)[C@@H](NC(=O)OC)C(C)(C)C)cc2)c2ccccc2)cc1)C(C)(C)C [Example 48],1 to 10
19,"COC(=O)N[C@H](C(=O)N1CCC[C@H]1C(=O)Nc1ccc(CN(Cc2ccc(NC(=O)[C@@H]3CCCN3C(=O)[C@@H](NC(=O)OC)[C@@H](C)O)cc2)[C@@H]2CCOC2)cc1)[C@@H](C)O [Example 97, dimethyl ([(3R)-tetrahydrofuran-3-ylimino]bis{methanediylbenzene-4,1-diylcarbamoyl(2S)pyrrolidine-2,1-diyl[(2S,3R)-3-hydroxy-1-oxobutane-1,2-diyl]})biscarbamate]",100 to 250
20,"C=CC[C@H](NC(=O)OC)C(=O)N1CCC[C@H]1C(=O)Nc1ccc(CN(Cc2ccc(NC(=O)[C@@H]3CCCN3C(=O)[C@H](CC=C)NC(=O)OC)cc2)c2ccccc2)cc1 [Example 37, dimethyl [(phenylimino)bis{methanediylbenzene-4,1-diylcarbamoyl(2S)pyrrolidine-2,1-diyl[(4S)-5-oxopent-1-ene-5,4-diyl]}]biscarbamate]",1 to 10
21,"COC(=O)N[C@H](C(=O)N1CCC[C@H]1C(=O)Nc1cccc(CN(Cc2cccc(NC(=O)[C@@H]3CCCN3C(=O)[C@@H](NC(=O)OC)C(C)C)c2)c2ccc(F)cc2)c1)C(C)C [Example 146, dimethyl ([(4-fluorophenyl)imino]bis{methanediylbenzene-3,1-diylcarbamoyl(2S)pyrrolidine-2,1-diyl[(2S)-3-methyl-1-oxobutane-1,2-diyl]})biscarbamate]",1 to 10
22,"COC(=O)N[C@H](C(=O)N1CCCC[C@H]1C(=O)Nc1ccc(CN(Cc2ccc(NC(=O)[C@@H]3CCCCN3C(=O)[C@@H](NC(=O)OC)C(C)(C)C)cc2)c2ccc(F)cc2)cc1)C(C)(C)C [Example 101, methyl [(1S)-1-{[(2S)-2-{[4-({(4-fluorophenyl)[4-({[(2S)-1-{(2S)-2-[(methoxycarbonyl)amino]-3,3-dimethylbutanoyl}piperidin-2-yl]carbonyl}amino)benzyl]amino}methyl)phenyl]carbamoyl}piperidin-1-yl]carbonyl}-2,2-dimethylpropyl]carbamate]",< 1
23,"CC(C)(C)[C@H](Nc1ncccn1)C(=O)N1CCC[C@H]1C(=O)Nc1ccc(CN(Cc2ccc(NC(=O)[C@@H]3CCCN3C(=O)[C@@H](Nc3ncccn3)C(C)(C)C)cc2)c2ccccc2)cc1 [Example 111, (2S,2′S)-N,N′-[(phenylimino)bis(methanediylbenzene-4,1-diyl)]bis{1-[(2S)-3,3-dimethyl-2-(pyrimidin-2-ylamino)butanoyl]pyrrolidine-2-carboxamide}]",1 to 10
24,C=CC[C@H]1CC[C@@H](C(=O)Nc2ccc(CN(Cc3ccc(NC(=O)[C@@H]4CC[C@H](CC=C)N4C(=O)[C@@H](NC(=O)OC)C(C)(C)C)cc3)c3ccccc3)cc2)N1C(=O)[C@@H](NC(=O)OC)C(C)(C)C [Example 64],< 1
25,"CC(=O)N[C@@H](C(=O)N1CCC[C@H]1C(=O)Nc1ccc(CN(Cc2ccc(NC(=O)[C@@H]3CCCN3C(=O)[C@H](NC(C)=O)c3ccccc3)cc2)c2ccccc2)cc1)c1ccccc1 [Example 43, (2S,2′S)-N,N′-[(phenylimino)bis(methanediylbenzene-4,1-diyl)]bis{1-[(2R)-2-(acetylamino)-2-phenylacetyl]pyrrolidine-2-carboxamide}]",< 1
